The results in this text go back to patent publication US20260007681A1, “INDOLE DERIVATIVES AS ESTROGEN RECEPTOR DEGRADERS” (REGENTS OF THE UNIVERSITY OF MICHIGAN, priority 2022, published 2026).

This test deals with ER (Homo sapiens (Human), UniProt P03372). The test is described as follows: Western blot analysis (Compounds B1-B278). Type of test: cell-based. The following applies: ER degradation by traditional Western blot; DC50 classes. Summed up: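 Compound-treated cells were lysed in RIPA buffer (Tris.HCl pH 7.6, 1% NP-40, deoxycholate, 0.1% SDS) with protease inhibitors; equal protein was resolved on 10% SDS-PAGE, transferred to PVDF and immunoblotted. Band intensities were quantified and normalized to GAPDH.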
Sequence of ER (P03372 whole entry): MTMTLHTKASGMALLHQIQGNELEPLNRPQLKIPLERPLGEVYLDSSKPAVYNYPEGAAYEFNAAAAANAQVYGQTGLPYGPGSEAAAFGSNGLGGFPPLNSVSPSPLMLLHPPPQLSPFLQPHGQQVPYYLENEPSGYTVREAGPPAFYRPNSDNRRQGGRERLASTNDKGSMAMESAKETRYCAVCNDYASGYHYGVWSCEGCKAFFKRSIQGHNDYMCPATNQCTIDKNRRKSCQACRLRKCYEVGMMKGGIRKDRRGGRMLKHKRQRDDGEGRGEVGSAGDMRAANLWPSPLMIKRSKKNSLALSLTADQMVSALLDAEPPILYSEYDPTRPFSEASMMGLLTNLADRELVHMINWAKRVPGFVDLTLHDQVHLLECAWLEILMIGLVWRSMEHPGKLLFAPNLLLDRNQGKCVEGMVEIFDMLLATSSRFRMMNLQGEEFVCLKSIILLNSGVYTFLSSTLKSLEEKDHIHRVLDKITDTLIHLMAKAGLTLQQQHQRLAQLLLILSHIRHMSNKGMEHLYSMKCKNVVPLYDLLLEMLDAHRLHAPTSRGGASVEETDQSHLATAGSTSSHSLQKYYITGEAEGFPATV
(A western blot detects proteins with antibodies after separation by electrophoresis.)
As for `C[C@@H]1Cc2c([nH]c3ccccc23)[C@@H](c2c(F)cc(N3CC(C(=O)N4CCC(CN5Cc6cc7c(cc6C5)C(=O)N(C5CCC(=O)NC5=O)C7=O)CC4)C3)cc2F)N1CC(F)F` (stereo partly drawn) [Compound B76, 6-((1-(1-(4-((1R,3R)-2-(2,2-difluoroethyl)-3-methyl-2,3,4,9-tetrahydro-1H-pyrido[3,4-b]indol-1-yl)-3,5-difluorophenyl)azetidine-3-carbonyl)piperidin-4-yl)methyl)-2-(2,6-dioxopiperidin-3-yl)-6,7-dihydropyrrolo[3,4-f]isoindole-1,3(2H,5H)-dione], the “Traditional Western Degradation Potency” value is listed as “A (“A”: <10 nM)”.

For `C[C@@H]1Cc2c([nH]c3ccccc23)[C@@H](c2c(F)cc(C3CCC(C(=O)N4CCC(N5Cc6cc7c(cc6C5)C(=O)N(C5CCC(=O)NC5=O)C7=O)CC4)CC3)cc2F)N1CC(F)F` (stereo partly drawn) [Compound B77, 6-(1-(4-(4-((1R,3R)-2-(2,2-difluoroethyl)-3-methyl-2,3,4,9-tetrahydro-1H-pyrido[3,4-b]indol-1-yl)-3,5-difluorophenyl)cyclohexane-1-carbonyl)piperidin-4-yl)-2-(2,6-dioxopiperidin-3-yl)-6,7-dihydropyrrolo[3,4-f]isoindole-1,3(2H,5H)-dione], the “Traditional Western Degradation Potency” value was “A (“A”: <10 nM)”.

For `C[C@@H]1Cc2c([nH]c3ccccc23)[C@@H](c2c(F)cc(C3CCC(C(=O)N4CCC(F)(CN5Cc6cc7c(cc6C5)C(=O)N(C5CCC(=O)NC5=O)C7=O)CC4)CC3)cc2F)N1CC(F)F` (stereo partly drawn) [Compound B78, 6-((1-(4-(4-((1R,3R)-2-(2,2-difluoroethyl)-3-methyl-2,3,4,9-tetrahydro-1H-pyrido[3,4-b]indol-1-yl)-3,5-difluorophenyl)cyclohexane-1-carbonyl)-4-fluoropiperidin-4-yl)methyl)-2-(2,6-dioxopiperidin-3-yl)-6,7-dihydropyrrolo[3,4-f]isoindole-1,3(2H,5H)-dione], the “Traditional Western Degradation Potency” value is “B (“B”: 10-100 nM)”.

Regarding `C[C@@H]1Cc2c([nH]c3ccccc23)[C@@H](c2c(F)cc(C3CCC(C(=O)N4CCC(CN5Cc6cc7c(cc6C5)C(=O)N(C5CCC(=O)NC5=O)C7=O)CC4)CC3)cc2F)N1CC(F)F` (stereo partly drawn) [Compound B79, 6-((1-(4-(4-((1R,3R)-2-(2,2-difluoroethyl)-3-methyl-2,3,4,9-tetrahydro-1H-pyrido[3,4-b]indol-1-yl)-3,5-difluorophenyl)cyclohexane-1-carbonyl)piperidin-4-yl)methyl)-2-(2,6-dioxopiperidin-3-yl)-6,7-dihydropyrrolo[3,4-f]isoindole-1,3(2H,5H)-dione], the “Traditional Western Degradation Potency” value was “C (“C”: >100 nM)”.

For `C[C@@H]1Cc2c([nH]c3ccccc23)[C@@H](c2c(F)cc(C3CCC(C(=O)N4CC(N5Cc6cc7c(cc6C5)C(=O)N(C5CCC(=O)NC5=O)C7=O)C4)CC3)cc2F)N1CC(F)F` (stereo partly drawn) [Compound B80, 6-(1-(4-(4-((1R,3R)-2-(2,2-difluoroethyl)-3-methyl-2,3,4,9-tetrahydro-1H-pyrido[3,4-b]indol-1-yl)-3,5-difluorophenyl)cyclohexane-1-carbonyl)azetidin-3-yl)-2-(2,6-dioxopiperidin-3-yl)-6,7-dihydropyrrolo[3,4-f]isoindole-1,3(2H,5H)-dione], the “Traditional Western Degradation Potency” value is “C (“C”: >100 nM)”.

As for `C[C@@H]1Cc2c([nH]c3ccccc23)[C@@H](c2c(F)cc(C3CCC(C(=O)N4CC(CN5Cc6cc7c(cc6C5)C(=O)N(C5CCC(=O)NC5=O)C7=O)C4)CC3)cc2F)N1CC(F)F` (stereo partly drawn) [Compound B81, 6-((1-(4-(4-((1R,3R)-2-(2,2-difluoroethyl)-3-methyl-2,3,4,9-tetrahydro-1H-pyrido[3,4-b]indol-1-yl)-3,5-difluorophenyl)cyclohexane-1-carbonyl)azetidin-3-yl)methyl)-2-(2,6-dioxopiperidin-3-yl)-6,7-dihydropyrrolo[3,4-f]isoindole-1,3(2H,5H)-dione], the “Traditional Western Degradation Potency” value is reported as “A (“A”: <10 nM)”.

On to `C[C@@H]1Cc2c([nH]c3ccccc23)[C@@H](c2c(F)cc(C3CCC(CN4CCC(N5Cc6cc7c(cc6C5)C(=O)N(C5CCC(=O)NC5=O)C7=O)CC4)CC3)cc2F)N1CC(F)F` (stereo partly drawn) [Compound B82, 6-(1-((4-(4-((1R,3R)-2-(2,2-difluoroethyl)-3-methyl-2,3,4,9-tetrahydro-1H-pyrido[3,4-b]indol-1-yl)-3,5-difluorophenyl)cyclohexyl)methyl)piperidin-4-yl)-2-(2,6-dioxopiperidin-3-yl)-6,7-dihydropyrrolo[3,4-f]isoindole-1,3(2H,5H)-dione], for which the “Traditional Western Degradation Potency” value is “C (“C”: >100 nM)”.

Take `C[C@@H]1Cc2c([nH]c3ccccc23)[C@@H](c2c(F)cc(C3CCC(CN4CC(CN5Cc6cc7c(cc6C5)C(=O)N(C5CCC(=O)NC5=O)C7=O)C4)CC3)cc2F)N1CC(F)F` (stereo partly drawn) [Compound B83, 6-((1-((4-(4-((1R,3R)-2-(2,2-difluoroethyl)-3-methyl-2,3,4,9-tetrahydro-1H-pyrido[3,4-b]indol-1-yl)-3,5-difluorophenyl)cyclohexyl)methyl)azetidin-3-yl)methyl)-2-(2,6-dioxopiperidin-3-yl)-6,7-dihydropyrrolo[3,4-f]isoindole-1,3(2H,5H)-dione]: the “Traditional Western Degradation Potency” value is given as “C (“C”: >100 nM)”.

`C[C@@H]1Cc2c([nH]c3ccccc23)[C@@H](c2c(F)cc(C3CCC(C(=O)N4CCC(N5Cc6cc7c(cc6C5)C(=O)N(C5CCC(=O)NC5=O)C7)CC4)CC3)cc2F)N1CC(F)F` (stereo partly drawn) [Compound B84, 3-(6-(1-(4-(4-((1R,3R)-2-(2,2-difluoroethyl)-3-methyl-2,3,4,9-tetrahydro-1H-pyrido[3,4-b]indol-1-yl)-3,5-difluorophenyl)cyclohexane-1-carbonyl)piperidin-4-yl)-1-oxo-3,5,6,7-tetrahydropyrrolo[3,4-f]isoindol-2(1H)-yl)piperidine-2,6-dione]: the “Traditional Western Degradation Potency” value is given as “A (“A”: <10 nM)”.

For `C[C@@H]1Cc2c([nH]c3ccccc23)[C@@H](c2c(F)cc(C3CCC(CN4CCC(N5Cc6cc7c(cc6C5)C(=O)N(C5CCC(=O)NC5=O)C7)CC4)CC3)cc2F)N1CC(F)F` (stereo partly drawn) [Compound B85, 3-(6-(1-((4-(4-((1R,3R)-2-(2,2-difluoroethyl)-3-methyl-2,3,4,9-tetrahydro-1H-pyrido[3,4-b]indol-1-yl)-3,5-difluorophenyl)cyclohexyl)methyl)piperidin-4-yl)-1-oxo-3,5,6,7-tetrahydropyrrolo[3,4-f]isoindol-2(1H)-yl)piperidine-2,6-dione], the “Traditional Western Degradation Potency” value is recorded as “B (“B”: 10-100 nM)”.

Regarding `C[C@@H]1Cc2c([nH]c3ccccc23)[C@@H](c2c(F)cc(-c3cnc(C(=O)N4CCC(N5Cc6cc7c(cc6C5)C(=O)N(C5CCC(=O)NC5=O)C7=O)CC4)nc3)cc2F)N1CC(F)F` (stereo partly drawn) [Compound B86, 6-(1-(5-(4-((1R,3R)-2-(2,2-difluoroethyl)-3-methyl-2,3,4,9-tetrahydro-1H-pyrido[3,4-b]indol-1-yl)-3,5-difluorophenyl)pyrimidine-2-carbonyl)piperidin-4-yl)-2-(2,6-dioxopiperidin-3-yl)-6,7-dihydropyrrolo[3,4-f]isoindole-1,3(2H,5H)-dione], the “Traditional Western Degradation Potency” value is given as “B (“B”: 10-100 nM)”.

On to `C[C@@H]1Cc2c([nH]c3ccccc23)[C@@H](c2c(F)cc(-c3ccc(C(=O)N4CCC(N5Cc6cc7c(cc6C5)C(=O)N(C5CCC(=O)NC5=O)C7=O)CC4)nc3)cc2F)N1CC(F)F` (stereo partly drawn) [Compound B87, 6-(1-(5-(4-((1R,3R)-2-(2,2-difluoroethyl)-3-methyl-2,3,4,9-tetrahydro-1H-pyrido[3,4-b]indol-1-yl)-3,5-difluorophenyl)picolinoyl)piperidin-4-yl)-2-(2,6-dioxopiperidin-3-yl)-6,7-dihydropyrrolo[3,4-f]isoindole-1,3(2H,5H)-dione], for which the “Traditional Western Degradation Potency” value is listed as “B (“B”: 10-100 nM)”.

For the compound `C[C@@H]1Cc2c([nH]c3ccccc23)[C@@H](c2c(F)cc(-c3ccc(CN4CCC(N5Cc6cc7c(cc6C5)C(=O)N(C5CCC(=O)NC5=O)C7=O)CC4)nc3)cc2F)N1CC(F)F` (stereo partly drawn) [Compound B88, 6-(1-((5-(4-((1R,3R)-2-(2,2-difluoroethyl)-3-methyl-2,3,4,9-tetrahydro-1H-pyrido[3,4-b]indol-1-yl)-3,5-difluorophenyl)pyridin-2-yl)methyl)piperidin-4-yl)-2-(2,6-dioxopiperidin-3-yl)-6,7-dihydropyrrolo[3,4-f]isoindole-1,3(2H,5H)-dione], the “Traditional Western Degradation Potency” value is reported as “C (“C”: >100 nM)”.

In the case of `C[C@@H]1Cc2c([nH]c3ccccc23)[C@@H](c2c(F)cc(-c3ccc(C(=O)N4CCC(N5Cc6cc7c(cc6C5)C(=O)N(C5CCC(=O)NC5=O)C7=O)CC4)cn3)cc2F)N1CC(F)F` (stereo partly drawn) [Compound B89, 6-(1-(6-(4-((1R,3R)-2-(2,2-difluoroethyl)-3-methyl-2,3,4,9-tetrahydro-1H-pyrido[3,4-b]indol-1-yl)-3,5-difluorophenyl)nicotinoyl)piperidin-4-yl)-2-(2,6-dioxopiperidin-3-yl)-6,7-dihydropyrrolo[3,4-f]isoindole-1,3(2H,5H)-dione], the “Traditional Western Degradation Potency” value is listed as “A (“A”: <10 nM)”.

Take `C[C@@H]1Cc2c([nH]c3ccccc23)[C@@H](c2c(F)cc(-c3ccc(C(=O)N4CCC(N5Cc6cc7c(cc6C5)C(=O)N(C5CCC(=O)NC5=O)C7=O)CC4)nn3)cc2F)N1CC(F)F` (stereo partly drawn) [Compound B91, 6-(1-(6-(4-((1R,3R)-2-(2,2-difluoroethyl)-3-methyl-2,3,4,9-tetrahydro-1H-pyrido[3,4-b]indol-1-yl)-3,5-difluorophenyl)pyridazine-3-carbonyl)piperidin-4-yl)-2-(2,6-dioxopiperidin-3-yl)-6,7-dihydropyrrolo[3,4-f]isoindole-1,3(2H,5H)-dione]: the “Traditional Western Degradation Potency” value is listed as “B (“B”: 10-100 nM)”.

With `C[C@@H]1Cc2c([nH]c3ccccc23)[C@@H](c2c(F)cc(-c3ncc(C(=O)N4CCC(N5Cc6cc7c(cc6C5)C(=O)N(C5CCC(=O)NC5=O)C7=O)CC4)cn3)cc2F)N1CC(F)F` (stereo partly drawn) [Compound B92, 6-(1-(2-(4-((1R,3R)-2-(2,2-difluoroethyl)-3-methyl-2,3,4,9-tetrahydro-1H-pyrido[3,4-b]indol-1-yl)-3,5-difluorophenyl)pyrimidine-5-carbonyl)piperidin-4-yl)-2-(2,6-dioxopiperidin-3-yl)-6,7-dihydropyrrolo[3,4-f]isoindole-1,3(2H,5H)-dione], the “Traditional Western Degradation Potency” value is reported as “A (“A”: <10 nM)”.
